Results taken from US20070286890A1, “Eyelash applicator and method” (priority 2006, published 2007).

System: eyelashes of healthy female volunteers
Experiment: Open-label study of Lumigan applied with an applicator to the upper eyelid margin, four months
Type: in vivo, human
[1] = one drop on applicator tip, applied to lid margin of both upper eyelids before bedtime, through week 12, 25 volunteers, no controls, preliminary findings

CCNC(=O)CCC/C=C\C[C@@H]1[C@@H](/C=C/[C@@H](O)CCc2ccccc2)[C@H](O)C[C@@H]1O [Lumigan®, cyclopentane N-ethyl heptanamide-5-cis-2-(3α-hydroxy-5-phenyl-1trans-pentenyl)-3,5-dihydroxy, [1α,2β,3α,5α]]
Darker and thicker lashes, additional lashes [1]: many grew darker and thicker lashes as well as additional lashes
Eyelash length (longer lashes) [1]: Every participant grew longer lashes
Growth of lower lid lashes and eyebrow hairs (patients applied Lumigan "on their own" to these areas): grew lower lid lashes and eyebrow hairs
Side effects (vision, IOP, ocular irritation, periocular pigmentary changes) (topical application to upper eyelid margin, through week 12, visits up to week 16, preliminary findings): Minimal Side Effects
